The conditions of data set [1]: dose of about 10 to about 20 mg/day; cited from earlier work.
Data set [2] relates to Charcot Marie Tooth Disease symptoms (neuropathic pain). Nature of the data set: Case of a subject with Charcot Marie Tooth Disease treated with sub-antimicrobial dose doxycycline. It is filed as in vivo, human. The procedure:
The subject described the pain during the daytime hours as a 2/10 and during the evening hours as a 6/10, and experienced this pain consistently for the prior 10 years. The subject began taking a sub-antimicrobial dose of doxycycline, i.e., 20 mg twice daily (i.e. Periostat®). […] Throughout the treatment period, the subject described the pain during daytime hours as a 1/10, and during the evening hours also as a 1/10. […] Within 1 week of discontinuing twice-daily sub-antimicrobial dose doxycycline treatment, the subject experienced a return of the neuropathic pain in a sporadic manner.

Where only a bound is given, the exact number is not on record here.

Turning to `NC(=O)C1=C(O)C[C@@H]2C[C@@H]3Cc4cccc(O)c4C(=O)C3=C(O)[C@]2(O)C1=O` [CMT-3, 6-demethyl-6-deoxy-4-dedimethylaminotetracycline], the “plasma concentrations in humans” value in data set [1] was “about 1.0 μg/ml”.
With `C[C@H]1c2cccc(O)c2C(=O)C2=C(O)[C@]3(O)C(=O)C(C(N)=O)=C(O)[C@@H](N(C)C)[C@@H]3[C@@H](O)[C@@H]21` [doxycycline, 6α-deoxy-5-hydroxytetracycline], the adverse events entry in data set [2] (20 mg twice daily for a period of 12 weeks) is recorded as “no adverse events were observed”. For the same compound, the “time to return of neuropathic pain (sporadic) after discontinuing treatment” value in data set [2] (after 12 weeks of 20 mg twice daily) is given as at most 1 week. The “pain during daytime hours (subject's description)” value in data set [2] (person with CMTD, 20 mg twice daily, throughout the treatment period (12 weeks), before treatment 2/10) is 1/10. Moreover, the “pain during the evening hours (subject's description)” value in data set [2] (person with CMTD, 20 mg twice daily, throughout the treatment period (12 weeks), before treatment 6/10) is on record as 1/10.

(Values after patent publication US12636293B2, “Methods of treating charcot-marie-tooth disease” (CMTx Biotech Inc., priority 2019, dated 2026).)
